Converted amounts (≈) assume the structure as drawn.
details: buffer; pH 7.4; 200.0 µM

Row | Structure (SMILES) | solubility kinetic [µg/mL]
1 | CC1CCN(C(=O)COC(=O)Cn2cnc3ccccc32)CC1 | > 47.3
2 | O=C(CSc1nccc(-c2cccs2)n1)Nc1ccc(Cl)cc1 | 1.4 (≈ 3.87 µM)
3 | Cc1ccnc(SCC(=O)NC2CC2)n1 | > 33.5
4 | Cc1cccc(N2CCN(C(=O)c3ccc4nccnc4c3)CC2C)c1 (stereo not drawn) | > 52
5 | CC(C)(C)c1cc(NC(=O)Nc2ccccc2)no1 | 4.1 (≈ 15.8 µM)
6 | CCOP(=O)(OCC)C1NC(=O)N(c2ccccc2)C1=O (stereo not drawn) | > 46.8
7 | O=C(CSc1n[nH]c(-c2ccc(Br)cc2)n1)N1CCOCC1 | > 57.5
8 | COc1ccc(C)cc1NC(=O)NC1CCCCCCC1 | < 0.3
9 | CC(=O)Nc1ccc2nc(NC(=O)c3ccc([N+](=O)[O-])o3)sc2c1 | 4 (≈ 11.5 µM)
10 | N#Cc1ccccc1S(=O)(=O)N1CCN(C(=O)C2CCCC2)CC1 | > 52.1
11 | Cc1ccc(NC(=O)COC(=O)C2CC(=O)N(Cc3ccccc3)C2)cc1F (stereo not drawn) | 46.8 (≈ 122 µM)
12 | COc1ccc(/C=C/C(=O)NCCCN2CCOCC2)cc1 | 43.8 (≈ 144 µM)
13 | CCCCCCN1C2=NCCCN2c2ccccc21.Cl | > 44.1
14 | NC(=O)NC(=O)COC(=O)/C=C/c1cccs1 | 10.4 (≈ 40.9 µM)
15 | Cc1ccccc1OCC(=O)NCCNC(=O)c1ccncc1 | > 47
16 | O=C(Nc1ccc(Oc2cccc(C(F)(F)F)c2)nc1)c1ccco1 | 1.2 (≈ 3.45 µM)
17 | O=C(Nc1cccc(S(=O)(=O)N2CCCC2)c1)c1ccncc1 | 46.9 (≈ 142 µM)
18 | O=C(OCc1nc2ccccc2s1)c1ccco1 | 35.4 (≈ 137 µM)
19 | O=S(=O)(c1ccc(Cl)cc1)N1CCC2(CC1)OCCO2 | > 47.7
20 | Cc1nc(-c2ccccn2)nc(N2CCOCC2)c1Cl | > 43.6
21 | CC(C)=CCN1CCN(CC#Cc2ccccc2)CC1CCO (stereo not drawn) | 37.9 (≈ 121 µM)
22 | O=C1c2ccccc2C(Nc2ccccc2)N1Cc1ccc2c(c1)OCO2 (stereo not drawn) | 0.9 (≈ 2.51 µM)
23 | CSc1ncccc1C(=O)OCC(=O)N1CCN(C(=O)c2ccco2)CC1 | > 58.4
24 | O=C(NCCc1ccccc1)C(=S)N1CCCCC1 | > 41.5
25 | COCCNC(=S)N(CCc1c(C)[nH]c2ccc(C)cc12)Cc1ccco1 | 15.2 (≈ 39.4 µM)

Row | Structure (SMILES) | solubility kinetic [µg/mL]
26 | CN(C)C(=S)SCCn1c(N)nc(N(C)C)nc1=O | > 45.4
27 | Cc1nc(CCNS(=O)(=O)c2cccnc2)cs1 | > 42.5
28 | COC(CNC(=O)CN1CCN(Cc2ccccc2F)C1=O)OC | > 50.9
29 | Cc1ccc(C)c2sc(N)nc12 | > 26.7
30 | Cc1cc(C)nc(NC(N)=S)n1 | 10.4 (≈ 57.1 µM)
31 | O=C1CN(S(=O)(=O)c2ccccc2)CCN1 | > 36
32 | COc1cccc(C=O)c1OCCN1C(=O)c2ccccc2C1=O | 42.6 (≈ 131 µM)
33 | COC(=O)C(Cc1c[nH]c2ccccc12)N1CCS(=O)(=O)CC1 (stereo not drawn) | > 50.5
34 | CCc1ccccc1OCCCN1CCCC1.O=C(O)C(=O)O | 43.9
35 | CC(=O)c1ccc(N=C2SCCCN2C(=O)C2CCCC2)cc1 | 47.5 (≈ 144 µM)
36 | COC(=O)c1[nH]c2c(c1C)C(=O)CC(c1cccc(OC)c1)C2 (stereo not drawn) | 2.1 (≈ 6.7 µM)
37 | CC(=O)Nc1ccc(NC(=O)C(C)Sc2nnc(-c3ccc4c(c3)OCO4)o2)cc1 (stereo not drawn) | > 64
38 | Fc1ccc(Nc2c3c(nc4ccccc24)CCC3)cc1 | 33.1 (≈ 119 µM)
39 | CC(=O)NC(CC(=O)Nc1ccc(S(=O)(=O)N2CCOCC2)cc1)c1ccccc1 (stereo not drawn) | > 64.7
40 | O=C(COC(=O)c1ccco1)NCCc1ccc(Cl)cc1 | > 46.2
41 | Cc1ccccc1C(=O)NC(=S)Nc1ncccn1 | 15.6 (≈ 57.3 µM)
42 | Cc1ccc(CN(Cc2ccco2)C(=S)NCC(=O)NC2CC2)cc1 | 47.2 (≈ 132 µM)
43 | COC(=O)c1ccsc1NC(=O)c1ccco1 | 3.2 (≈ 12.7 µM)
44 | COc1ccc(S(=O)(=O)N2CCc3ccccc32)cc1C(=O)Nc1ccc(NC(C)=O)cc1 | 7.2 (≈ 15.5 µM)
45 | CC(=O)Nc1ccccc1C(=O)OCc1ccccc1F | 32 (≈ 111 µM)
46 | CC(C)(C)N=Cc1c(O)ccc2oc3c(c12)CCCC3 | 6.5 (≈ 24 µM)
47 | CCc1ccc(CNCc2cccs2)cc1.Cl | 23.9
48 | O=C1NC(=O)N(Cc2ccccc2)C(=O)/C1=C/C=C/c1ccco1 | 8.8 (≈ 27.3 µM)
49 | Nc1c(Cl)ncnc1NCC(O)CO (stereo not drawn) | > 32.8
50 | CCCCOc1ccc(C2=CSC3=NCCN23)cc1[N+](=O)[O-] | > 47.9

Row | Structure (SMILES) | solubility kinetic [µg/mL]
51 | COC(=O)C(Cc1ccccc1)NC(=O)CCc1c[nH]c2ccccc12 (stereo not drawn) | > 52.6
52 | O=C(COC(=O)c1cnc(Cl)c(Cl)c1)NC1CC1 | > 43.4
53 | COC(=O)c1ccc(CN2C(=O)NC(CC(C)C)C2=O)cc1 (stereo not drawn) | > 45.7
54 | CCCn1c(SCC(=O)NC2CCCC2)nnc1-c1cccnc1 | > 51.8
55 | CCc1sc(C(=O)Nc2ccccc2N2CCOCC2)cc1C | 2.5 (≈ 7.57 µM)
56 | Cc1ccc(S(=O)(=O)Nc2ccccc2CNC2CCCCC2)cc1 | > 53.8
57 | O=C(Cc1ccccc1[N+](=O)[O-])NCCC1=CCCCC1 | 26.7 (≈ 92.6 µM)
58 | Cc1ccc(NC(=O)Nc2cccc3ccccc23)cc1 | < 0.3
59 | Cc1ccc(N2C(=O)CC(Nc3cccc4ccccc34)C2=O)cc1 (stereo not drawn) | 3.8 (≈ 11.5 µM)
60 | CCOc1cc(-c2nc3ccccc3s2)ccc1O | 1.1 (≈ 4.05 µM)
61 | CN1CCN(CC(=O)Nc2nc3ccccc3s2)CC1.O=CO | 50.4
62 | CC1(C)CC2CC(C)(CN2/C=C2/CCCCC2=O)C1 (stereo not drawn) | 22.6 (≈ 86.5 µM)
63 | COc1ccccc1C1CCN(Cc2cccc([N+](=O)[O-])c2)CC1 | 16.4 (≈ 50.2 µM)
64 | O=C(C[n+]1ccc2ccccc2c1)c1ccccc1.[Br-] | > 49.2
65 | Cl.Nc1ccn([C@H]2C[C@H](O)[C@@H](CO)O2)c(=O)n1 | > 39.6
66 | CC(C(=O)O)N1c2cccc3cccc(c23)S1(=O)=O (stereo not drawn) | > 41.6
67 | CC1CCN(S(=O)(=O)c2ccc([N+](=O)[O-])cc2)CC1 | 3.2 (≈ 11.3 µM)
68 | O=[N+]([O-])c1ccc(CSc2ccccn2)cc1 | 15.2 (≈ 61.7 µM)
69 | CC(=O)c1cccc(NC(=O)CCn2c(=O)oc3ccccc32)c1 | 19.7 (≈ 60.7 µM)
70 | NNC(=O)CCN1CCN(Cc2ccccc2)CC1 | > 39.4
71 | COc1ccc(NC(=O)CN2CCN(CC#N)CC2)cc1 | > 43.3
72 | COc1ccc(C(=O)NC2CCCc3ccccc32)c(OC)c1OC (stereo not drawn) | 41.9 (≈ 123 µM)
73 | O=C(Nc1nc(-c2ccc(F)c(F)c2)cs1)Nc1ccc(F)cc1F | < 0.3
74 | Cc1ccc(C)c(OCCC(=O)OCC(=O)NC2CCCC2)c1 | 43.5 (≈ 136 µM)
75 | O=C(CN1C(=O)NC2(CCCCCCC2)C1=O)NCc1ccc(Cl)cc1 | 9.9 (≈ 26.2 µM)

Row | Structure (SMILES) | solubility kinetic [µg/mL]
76 | COc1cc(OC)cc(C(=O)NCCNC(=O)c2ccccn2)c1 | > 49.4
77 | CC(C)(C)c1ccc(C(=O)NCCc2ccccc2)cc1 | 0.8 (≈ 2.84 µM)
78 | CCN(CC)S(=O)(=O)c1ccc(N)cc1 | > 34.2
79 | O=C1NN(c2ccc(F)cc2)C(=O)/C1=C/c1cccs1 | > 43.2
80 | CCC(C(=O)Nc1nc(C)c(C)s1)c1ccccc1 (stereo not drawn) | 38.3 (≈ 140 µM)
81 | CC(=O)Nc1ccc2c(c1)CCCC2 | > 28.4
82 | COc1ccc(CNC(=O)C2CCN(C(=O)c3ccco3)CC2)cc1 | 45.8 (≈ 134 µM)
83 | CC(=O)Nc1ccc(NC(=O)CN2C(=O)NC3(CCCCCCC3)C2=O)cc1 | 45.1 (≈ 117 µM)
84 | O=[N+]([O-])c1cccc(Oc2cnccn2)c1 | 31.8 (≈ 146 µM)
85 | S=C(c1ccccc1)N1CCCC1 | > 28.7
86 | Fc1ccc(-c2onc3ccc(C4OCCO4)cc23)cc1 | < 0.6
87 | Cn1cc(S(=O)(=O)N2CCOCC2)cc1C(=O)O | > 41.1
88 | Cc1ccc(C(=O)Nc2cc(C)nn2CCC#N)cc1 | > 40.2
89 | O=C(COC(=O)c1ccc(O)cc1)NC1CCCCCC1 | > 43.7
90 | Cc1cc(C(=O)OCC(=O)Nc2ccccc2)c(C)o1 | 20 (≈ 73.2 µM)
91 | COc1ccc(N(CC(=O)Nc2cccnc2)S(=O)(=O)c2ccccc2)cc1Cl | 34.2 (≈ 79.2 µM)
92 | CCCCNC(=S)Nc1ccc2[nH]c(=O)[nH]c2c1 | 18.4 (≈ 69.6 µM)
93 | CC(OC(=O)CCc1c[nH]c2ccccc12)C(=O)c1ccccc1 (stereo not drawn) | 12.7 (≈ 39.5 µM)
94 | O=C(CN1C(=O)c2cccc3cccc(c23)C1=O)NCCCO | > 46.8
95 | COc1ccccc1CNC(=O)N1CCN(c2ccccc2)CC1 | > 48.8
96 | CCC(C)c1ccc(NC(=S)N2CCCC2)cc1 (stereo not drawn) | > 39.4
97 | CC(=O)Nc1ccc2c(c1)nc(C)n2Cc1ccccc1 | > 41.9
98 | CC(C)NCC(O)COCCOc1ccc(Cl)cc1.Cl (stereo not drawn) | > 48.6
99 | O=C(c1ccccc1CCc1ccccc1)N1CCCC1 | 40.5 (≈ 145 µM)
100 | COc1ccc(OC)c(NC(=O)CCOc2cccc(C)c2)c1 | 23 (≈ 72.9 µM)

Row | Structure (SMILES) | solubility kinetic [µg/mL]
101 | CN1C(=O)C(O)(C2CCCCCC2=O)c2ccccc21 (stereo not drawn) | > 41
102 | O=C(/C=C/c1c(F)cccc1Cl)Nc1cccnc1 | 13.7 (≈ 49.5 µM)
103 | Cc1noc(C)c1S(=O)(=O)N(C)Cc1ccccc1 | 38.5 (≈ 137 µM)
104 | Cc1ncc(CSc2nccc(=O)[nH]2)c(CO)c1O | > 41.9
105 | CN(C)Cc1ccccc1C(O)(c1ccccc1)c1ccccc1 | 1.2 (≈ 3.78 µM)
106 | O=C(CSCc1ccc(Br)cc1)NC1CC1 | 38.7 (≈ 129 µM)
107 | CC(O)c1nc2ccccc2n1CCCc1ccccc1 (stereo not drawn) | > 42.1
108 | O=C(COC(=O)/C=C/c1ccc(OC(F)F)cc1)Nc1cccc(S(=O)(=O)N2CCOCC2)c1 | 7.3 (≈ 14.7 µM)
109 | COc1ccc(CC(=O)N2CCN=C2SC)cc1OC | > 44.2
110 | Cc1csc(NC(=O)CSc2nccn2C)n1 | > 40.3
111 | Cc1cc([N+](=O)[O-])ccc1NC(=O)C(C)NC1CCCCC1 (stereo not drawn) | > 45.8
112 | Cc1cccc(-c2noc(CCC(=O)NC3CCCCC3)n2)c1 | 3.4 (≈ 10.8 µM)
113 | COc1cccc(/C=N/NC(=O)CNC(=O)COc2ccccc2)c1O | > 53.6
114 | O=C(NCCCN1CCOCC1)C1Cc2c(ccc3ccccc23)O1 (stereo not drawn) | > 51.1
115 | CNC(=O)c1csc(-c2cccs2)n1 | 33.3 (≈ 148 µM)
116 | Cc1ccc2cc(CNCCc3ccccc3C)c(=O)[nH]c2c1 | 40.7 (≈ 133 µM)
117 | CCOc1c(N2CCOCC2)c(=O)c1=O | > 31.7
118 | CCCc1nc2oc3c(NCC(C)O)ncnc3c2c2c1CCCC2 (stereo not drawn) | 0.4 (≈ 1.17 µM)
119 | CC(CCc1ccccc1)NC(=O)C1CC1 (stereo not drawn) | > 32.6
120 | CC1(C)OC(=O)C(=Cc2ccc[nH]2)C(=O)O1 | 25.4 (≈ 115 µM)
121 | CCC1CCCCN1C(=O)CSc1nc(N)cc(N)n1 (stereo not drawn) | 43.1 (≈ 146 µM)
122 | CC(=O)c1cccc(NC(=S)NCc2ccccc2)c1 | 6.4 (≈ 22.5 µM)
123 | O=C(COC(=O)C1CC(=O)N(Cc2ccco2)C1)Nc1ccc(F)cc1F (stereo not drawn) | > 56.7
